Patent US5516797A, “Immunosuppressive compounds” (Vertex Pharmaceuticals, Incorporated, priority 1994, dated 1996)

What was measured:
[1] = target: T1, FK-506 binding protein (FKBP) (Homo sapiens, UniProt P62942); assay: Inhibition of PPIase (rotamase) enzyme activity of FKBP (apparent Ki); type: biochemical; conditions: substrate N-succinylAla-Ala-Pro-Phe-p-nitroanilide, chymotrypsin-coupled
Method in brief: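 Cis-trans isomerization of N-succinyl-Ala-Ala-Pro-Phe-p-nitroanilide was followed spectrophotometrically in a chymotrypsin-coupled assay releasing 4-nitroanilide from the trans substrate. Apparent Ki came from the change in first-order rate constant across inhibitor concentrations.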

[2] = target: T1, FK-506 binding protein (FKBP); assay: Competitive binding to FKBP against [3H]dihydro-FK-506 (apparent Kd); conditions: competition with [3H]dihydro-FK-506
[3] = test system: human peripheral blood lymphocytes; assay: Mitogenesis assay PMA: inhibition of proliferation of human PBLs; type: cell-based; conditions: Lymphocyte, PMA (10 ng/ml) plus ionomycin (250 ng/ml), 48 h incubation
Method in brief: (§1)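 Human PBLs from normal donors, isolated over Histopaque 1077 and cultured in RPMI 1640 with 10% heat-inactivated FCS, were stimulated with PMA or OKT3 mitogen in the presence of compound (DMSO stocks). After 48 h at 37 °C and 5% CO2, cells were pulsed with 1 μCi ³H-thymidine and harvested 24 h later for scintillation counting.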

[4] = test system: human peripheral blood lymphocytes; assay: Mitogenesis assay OKT3: inhibition of proliferation of human PBLs; type: cell-based; conditions: Lymphocyte, OKT3 (10^-4 dilution final), 48 h incubation
Method in brief: as §1

[5] = test system: PBLs stimulated with LB human viral transformed B lymphoblastoid cells; assay: MLR bioassay LB: inhibition of proliferation in mixed lymphocyte reaction; type: cell-based; conditions: Lymphoblastoid cell, pulsed on day 6, harvested 24 h later
Method in brief: (§2)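 Fresh human PBLs (5×10^4) stimulated with 5×10^3 Mitomycin C-treated allogeneic EBV-transformed B lymphoblastoid cells in RPMI 1640 with 10% FCS, with or without compound (DMSO stocks). Pulsed on day 6, harvested 24 h later and counted.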

[6] = test system: PBLs stimulated with JVM human viral transformed B lymphoblastoid cells; assay: MLR bioassay JVM: inhibition of proliferation in mixed lymphocyte reaction; type: cell-based; conditions: Lymphoblastoid cell, pulsed on day 6, harvested 24 h later
Method in brief: as §2

[7] = test system: human peripheral blood lymphocytes; assay: Human PBL + OKT3 proliferation (Table 5, assay 1); type: cell-based; conditions: Lymphocyte, [3H]TdR incorporation, estimated
Method: 1) Assay similar to Yoshimura, N. et al., Transplantation 47:356-359 (1989). Assay uses fresh human peripheral blood lymphocytes isolated by Ficoll-Hypaque density centrifugation, stimulated bythe OKT3 antibody (anti-CD3) which stimulates via interaction with CD3. Stimulation is measured by incorporation of radioactive thymidine [(^3 H)TdR] into proliferating cells, with an uninhibited control signal of 48,000-75,000 cpm. IC50 values are estimated from inhibitions of proliferation observed at various drug concentrations.

[8] = test system: T-cell clone stimulated with antibody to TCR and CD2; assay: T-Cell Hybridoma + TCR/CD2 proliferation (Table 5, assay 2); type: cell-based; conditions: [3H]TdR incorporation, estimated
Method: 2) Assay similar to above, but using T-cell clone stimulated with antibody to the T-cell receptor (TCR) and antibody to CD2. Stimulation is measured by incorporation of radioactive thymidine [(^3 H)TdR] into proliferating cells, with an uninhibited control signal of 23,000 cpm. IC50 values are estimated from inhibitions of proliferation observed at various drug concentrations.

T-cell hybridoma = assay: Apoptosis: activation-induced (anti-CD3) cell death in T-cell hybridoma (Table 5, assay 3); type: cell-based
From the text: 3) Assay according to Shi, Y. et al., Nature 339:625-626 (1989). The assay uses a T-cell hybridoma similar to that described. The assay measures activation-induced (anti-CD3) cell death (evaluated by counting viable cells after staining as described) in a T-cell hybridoma that mimics the effect known to occur in immature thymocytes.

CTLL cells = assay: CTLL Proliferation + IL-2 (Table 5, assay 4); type: cell-based, murine
Method: 4) Assay according to DuMont, F. et al., J. Immunol. 144:251-258 (1990). The assay measures the stimulation of CTLL cells in response to IL-2. Proliferation is measured by incorpoation of (^3 H)TdR. […] In this assay, exogenous IL-2 is provided to overcome this block.
Fresh peripheral blood lymphocytes (PBLs) from LeukoPak cells or whole blood from random normal blood donors (tested HIV-negative and hepatitis negative) are isolated and separated by density centrifugation over Histopaque 1077 (Sigma Chemical Co., St. Louis, Mo.). The murine CTLL cytotoxic T cell line and the human Jurkat T cell line are from ATCC (CTLL-2 ATCC TIB214, JURKAT CLONE E6-1 ATCC TIBl52). The human allogeneic B cell lines used for activation of the fresh PBLs are EBV-transformed lymphocytes from normal healthy adult donors with two completely different HLAhaplotypes. All cell lines were routinely tested for the presence of Mycolasma contamination using the GibcoMycotect test kit and are Mycolasma-free. Culture medium consksts of RPMI 1640 (Gibco, Grand Island, N.Y.) containing penicillin (50 U/ml) and streptomycin (50 μg/ml), L-glutamine 2 mM, 2 mercaptoethanol (5×10^-5), 10% heat-inactivated FCS and 10 mM HEPES.

CTLLs = conditions: cited from earlier work

T1 sequence (P62942 whole entry): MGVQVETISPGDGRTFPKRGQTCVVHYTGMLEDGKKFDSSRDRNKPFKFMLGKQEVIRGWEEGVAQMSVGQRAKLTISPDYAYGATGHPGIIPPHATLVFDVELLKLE

SMILES	Ki [1] [µM]	Kd [2] [µM]	IC50 [3] [µM]	IC50 [4] [µM]	IC50 [5] [µM]	IC50 [6] [µM]	IC50 [7] [µg/mL]	IC50 [8] [µg/mL]	activity in activation-induced cell death assay (in words) (T-cell hybridoma)	Apoptosis (activation-induced cell death) (T-cell hybridoma; at 1 μg/ml)	activity in CTLL / IL-2 assay (in words) (CTLL cells)	IC50 (CTLL cells; Mus musculus, CTLL, exogenous IL-2, [3H]TdR incorporation) [µg/mL]	IL-2 dependent proliferation of the CTLLs (CTLLs)
O=C(C(=O)N1CCCC[C@H]1C(=O)OCc1ccccc1)c1cccc(C(F)(F)F)c1 [Compound 52]	1.5	1.3	> 10	> 10	> 10	> 10	–	–	–	–	–	–	–
C[C@H](OC(=O)[C@@H]1CCCCN1C(=O)C(=O)c1ccccc1)c1ccccc1 [Compound 49]	0.5	0.6	> 10	6.2	> 10	> 10	–	–	–	–	–	–	–
O=C(C(=O)N1CCCC[C@H]1C(=O)OCc1ccccc1)c1cccs1 [Compound 22]	0.8	4	> 10	> 10	> 10	> 10	–	–	–	–	–	–	–
O=C(C(=O)N1CCCC[C@H]1C(=O)OCc1ccccc1)c1ccc([N+](=O)[O-])cc1 [Compound 16]	160	100	> 10	> 10	> 10	> 10	–	–	–	–	–	–	–
O=C(C(=O)N1CCCC[C@H]1C(=O)OCc1ccccc1)C1CCCCC1 [Compound 40]	1.3	3	7	1	> 10	> 10	–	–	–	–	–	–	–
O=C(OCc1ccccc1)[C@@H]1CCCCN1C(=O)C(=O)C1(O)CCCCC1 [Compound 46]	1	2	> 10	> 10	> 10	> 10	–	–	–	–	–	–	–
CO[C@H]1C[C@@H]2CC[C@@H](C)[C@@](O)(O2)C(=O)C(=O)N2CCCC[C@H]2C(=O)O[C@H]([C@H](C)C[C@@H]2CC[C@@H](O)[C@H](OC)C2)CC(=O)[C@H](C)/C=C(\C)[C@@H](O)[C@@H](OC)C(=O)[C@H](C)C[C@H](C)/C=C/C=C/C=C/1C [Rapamycin]	–	–	–	–	–	–	< 1	< 1	inactive	Inactive	active	~0.01	inhibits IL-2 dependent proliferation of the CTLLs
COc1cccc(C(=O)C(=O)N2CCCC[C@H]2C(=O)OCc2ccccc2)c1 [Compound 9]	0.3	> 1.3	> 10	6.5	> 10	> 10	–	–	–	–	–	–	–
O=C(C(=O)N1CCCC[C@H]1C(=O)OCc1ccccc1)c1ccc2ccccc2c1 [Compound 47]	1.5	0.3	> 10	> 10	> 10	> 10	–	–	–	–	–	–	–
O=C(C(=O)N1CCCC[C@H]1C(=O)OCCCCc1ccccc1)c1ccc(I)cc1 [Compound 81]	0.8	0.25	7	> 10	> 10	> 10	–	–	–	–	–	–	–

Further lines, with some results ahead:

Ki [1] [µM]	Kd [2] [µM]	SMILES	IC50 [3] [µM]	IC50 [4] [µM]	IC50 [5] [µM]	IC50 [6] [µM]	IC50 [7] [µg/mL]	IC50 [8] [µg/mL]	activity in activation-induced cell death assay (in words) (T-cell hybridoma)	Apoptosis (activation-induced cell death) (T-cell hybridoma; at 1 μg/ml)	activity in CTLL / IL-2 assay (in words) (CTLL cells)	IC50 (CTLL cells; Mus musculus, CTLL, exogenous IL-2, [3H]TdR incorporation) [µg/mL]	IL-2 dependent proliferation of the CTLLs (CTLLs)
0.04	0.033	O=C(C(=O)N1CCCC[C@H]1C(=O)OCCCCc1ccccc1)c1cccc(-c2ccccc2)c1 [Compound 96]	> 10	> 10	> 10	> 10	–	–	–	–	–	–	–
0.016	0.05	COc1cc(C(=O)C(=O)N2CCCC[C@H]2C(=O)OCCCCc2c[nH]c3ccccc23)cc(OC)c1OC [Compound 94]	5	5.5	> 10	7	–	–	–	–	–	–	–
0.08	0.18	O=C(C(=O)N1CCCC[C@H]1C(=O)OCCCCc1ccccc1)C1CCCCC1 [Compound 98]	> 10	> 10	> 10	> 10	–	–	–	–	–	–	–
0.09	0.08	COc1cc(C(=O)C(=O)N2CCCC[C@H]2C(=O)OCCCCCC2CCCCC2)cc(OC)c1OC [Compound 74]	8	9	10	10	–	–	–	–	–	–	–
0.016	0.06	COc1cc(C(=O)C(=O)N2CCCC[C@H]2C(=O)OCCCCc2ccc(I)cc2)cc(OC)c1OC [Compound 77]	4.5	8	6	7	–	–	–	–	–	–	–
0.011	0.07	C=CCOC(=O)Nc1ccc(CCCOC(=O)[C@@H]2CCCCN2C(=O)C(=O)c2cc(OC)c(OC)c(OC)c2)cc1 [Compound 88]	2.2	2.2	2.5	4.5	–	–	–	–	–	–	–
0.1	0.05	COc1cc(C(=O)C(=O)N2CCCC[C@H]2C(=O)OCCCCCCc2ccccc2)cc(OC)c1OC [Compound 71]	5	5.5	7.5	8	–	–	–	–	–	–	–
0.13	0.2	O=C(C(=O)N1CCCC[C@H]1C(=O)OCCCCc1ccccc1)c1cccc(I)c1 [Compound 82]	10	> 10	> 10	> 10	–	–	–	–	–	–	–
0.1	2	COc1cc(C(=O)C(=O)N2CCCC[C@H]2C(=O)OCc2ccccc2)cc(OC)c1OC [Compound 13]	> 10	5.9	> 10	> 10	–	–	–	–	–	–	–
0.05	0.5	COc1cc(C(=O)C(=O)N2CCCC[C@H]2C(=O)OCCCCCCC2CCCCC2)cc(OC)c1OC [Compound 72]	9	> 10	> 10	> 10	–	–	–	–	–	–	–
0.011	0.6	COc1ccc(C=CCCOC(=O)[C@@H]2CCCCN2C(=O)C(=O)c2cc(OC)c(OC)c(OC)c2)cc1 [Compound 90]	8	> 10	> 10	> 10	–	–	–	–	–	–	–
0.09	0.15	O=C(C(=O)N1CCCC[C@H]1C(=O)OCc1cccc(Oc2ccccc2)c1)c1ccccc1 [Compound 62]	6.5	> 10	> 10	> 10	–	–	–	–	–	–	–
